IC50 data for 1 compound are collected here from ChEMBL document CHEMBL5727087, “Inhibitors of lysine gingipain” (2018).

The structures appear in SMILES notation.

This test is described as follows: Inhibition Assay: The specific assay conditions were as follows. Buffer: pH=7.5, 100 mM Tris-HCl, 75 mM NaCl, 2.5 mM CaCl2, 10 mM cysteine, 1% DMSO after all additions. Protein: 0.1 nM Kgp, isolated from culture of Porphyromonas gingivalis, as described in Pike et al. J. Biol. Chem. 1994, 269(1), 406, and Potempa and Nguyen. Current Protocols in Protein Scienc. 2007, 21.20.1-21.20.27. Fluorogenic substrate: 10 uM Z-His-Glu-Lys-MCA. Time=90 minutes. Temperature=37° C. Each compound: 10 concentrations, starting at either 100 uM or 100 nM, with lower concentrations generated by serial 3-fold dilutions. By testing a range of concentrations for each compound, the concentration required to inhibit the activity of lysine gingipain by 50% (the “IC50”) was determined. Under the described assay conditions, signal-to-noise was excellent, and Z factor was greater than 0.6.

`NCCCC[C@H](NC(=O)C1CCCC1)C(=O)COc1c(F)c(F)cc(F)c1F` had an IC50 of less than 1 nM.
